Laboratory results as given in US20260085081A1, “PHOSPHATIDYLAMINE COMPOUNDS INCLUDING A PLURALITY OF TERTIARY AMINO GROUP STRUCTURES AND COMPOSITIONS THEREOF” (PEKING UNIVERSITY, priority 2022, published 2026).

Assays:
[1] = system: NIH-3T3 cells; test: Transfection efficiency of lipid nanoparticles in NIH-3T3 cells; type: cell-based, murine
Method: The prepared cationic compounds (PL1, PL4, PL8, PL10, PL11, PL12, PL13, PL14, PL17, PL18, PL23, PL24, PL26, PL27, PL28, PL29, PL30, PL31, PL32, PL33, PL36, PL38, PL41, PL44, PL45, PL53, PL54, PL55, PL56, PL57, PL58, PL59, PL60, PL61, PL78, PL79, PL93, PL94, PL95, PL96, PL97, PL103), DOPE/DSPC, cholesterol, and DMG-PEG2000 are prepared with ethanol in a molar ratio of 35:16:46.5:2.5 to form the ethanol phase, and RNA is formulated into the aqueous phase with 50 mM citrate buffer solution at pH=4. Lipid nanoparticles are obtained by microfluidic mixing at aqueous phase:ethanol phase=3:1 (v/v), followed by dialysis purification in PBS at pH 7.4 overnight to remove ethanol.
(§1) Determination process included: preparing a 96-well plate, inoculating cells (4000 cells/well), adding 100 μL of medium, incubating at 37° C. overnight; after 24 h, adding lipid nanoparticles diluted with medium (achieving the final concentration of RNA of 10 µg/mL), incubating at 37° C. for 24 h, and then adding 50 μL of specialized luciferase substrate to each well, followed by detection using by a microplate reader (chemiluminescence).
FIG. 1A and FIG. 1B illustrate transfection of lipid nanoparticles of a DOPE group and a DSPC group in NIH3T3 cells according to some embodiments of the present disclosure. Specifically, for compounds PL1, PL4, PL6, PL8, PL10, PL11, PL12, lipid nanoparticles are prepared by DOPE and DSPC, respectively, according to an […] (Example 44). The transfection efficiency of these two groups of lipid nanoparticles in cells is first evaluated, and murine fibroblasts NIH-3T3 are selected for incubation (Example 47), and the results are shown in FIG. 1A and FIG. 1B. […] PL10, PL11, and PL12 all include two tertiary amino groups.

[2] = Encapsulation efficiency of lipid nanoparticles (RiboGreen assay); type: physicochemical
Method: The total RNA concentration and the encapsulation efficiency were determined using a RiboGreen assay. Determination process included: taking a black 96-well plate, adding 50 μL TE buffer/Triton X to A1-A8/B1-B8, respectively (A1-A6/B1-B6 for the standard curve, A7-8/B7-8 for samples), then adding the RNA TE (Tris-EDTA) dilution solutions (2 ng/μL, 1 ng/μL, 0.5 ng/μL, 0.25 ng/μL, 0.125 ng/μL, 0 ng/μL) to the above wells A1-A6/B1-B6 as the standard curve, adding 50 μL nanoparticle dilution solution to A7-A8/B7-B8, and shaking at 37° C. for 15 min, subsequently, adding 100 μL of RiboGreen solution (diluted 400-fold with TE buffer) to each well, and shaking for 3-5 min, and detecting the fluorescence intensity of each well by a microplate reader at an excitation wavelength of 485 nm and an emission wavelength of 515 nm.

[3] = system: human hepatocellular carcinoma HepG2 cells; test: Transfection efficiency of lipid nanoparticles in HepG2 cells; type: cell-based
Method: as §1
FIG. 2A and FIG. 2B illustrate encapsulation efficiency of lipid nanoparticles and cell transfection efficiency according to some embodiments of the present disclosure. FIG. 2A is the encapsulation efficiency of lipid nanoparticles in the DOPE/DSPC groups, and FIG. 2B is the transfection efficiency in HepG2 cells. PL1, PL10, and PL12 from the DOPE group, and PL11 and PL12 from the DSPC group are selected to further explore the transfection efficiency in human hepatocellular carcinoma HepG2 cells. LNP is first prepared using microfluidic approach (Example 44) and the encapsulation efficiency of LNP is measured (Example 46), and the results are shown in FIG. 2A. […] PL10 has the best effect, which is 400-fold of that of LNPs in the control group MC3. The experiment also further illustrates that PL lipids have excellent cell transfection efficiency and stable effect in different cell lines.

[4] = Particle size of lipid nanoparticles (dynamic light scattering); type: physicochemical
Method: The particle size of the lipid nanoparticles and the distribution (size, PDI) were determined by Malvern Zetasizer Nano ZS laser particle sizer according to dynamic light scattering (DLS). The samples were diluted 100-fold with PBS before measurement, and 1 mL was taken for measurement. The measurement was repeated three times in parallel for each sample.

[5] = system: Fluc-mRNA (luciferase expression); test: In vivo transfection efficiency of Fluc-mRNA lipid nanoparticles after intramuscular injection; parameters: species or system mice; settings: for expression in vivo compared with control MC3 / in vivo transfection (expression, FIG. 5): 3 μg Fluc-mRNA/mouse; for Intramuscular injection (PL/MC3) expression strength level: ratio of expression PL/MC3; for in vivo transfection (expression, FIG. 5): weight ratio lipid nanoparticle/RNA 10:1, DOPE or DSPC group
Method: 6 h after intramuscular injection of mRNA LNPs, mice were injected intraperitoneally with 0.2 mL […] (20 mg/mL PBS solution). After 10 min, mice were anesthetized with isoflurane in oxygen in a ventilated anesthesia room and imaged with an imaging system (IVIS, PerkinElmer), and luminescence was quantified using Living Image software (PerkinElmer).

[6] = system: white adipocyte; test: White adipocyte administration, expression relative to SM102; type: cell-based; settings: ratio of expression PL/SM102
Excerpt: (§2) Finally, the expression levels of lipid nanoparticles with a plurality of tertiary amine groups from the embodiments of the present disclosure after intramuscular injection, white adipocyte administration, and intraperitoneal injection are summarized, and compared with lipid nanoparticles prepared from commercially available cationic lipids MC3 and SM102. […] However, the expression rates of the phosphatidylamine lipids with a plurality of tertiary amine groups from embodiments of the present disclosure are higher than that of SM102.

[7] = system: adipose tissue; test: Intraperitoneal injection of Fluc-mRNA LNPs, expression and distribution; type: in vivo, mice; settings: ratio of expression PL/SM102
Method: FIG. 10 illustrates the effect of Fluc-mRNA LNPs composed of different structural cationic lipids on the mRNA delivery efficiency after intraperitoneal administration according to some embodiments of the present disclosure. Targeting and expression of PL lipids on adipose tissue after intraperitoneal administration is also evaluated. […] That is to say, the PL lipid structure with the plurality of tertiary amino group structures may enhance the selective targeting of visceral adipocytes. […]
as §2

[8] = Summary of the strongest expressions over the administration routes; settings: strongest level of the three administrations
Excerpt: as §2

[9] = system: joint cavity; test: Intra-articular injection of Fluc-mRNA LNPs, luciferase expression in the joint cavity (IVIS); type: in vivo, ICR mice
Method: Images of luciferase expression in the joint cavity are detected with an IVIS imaging system at 6 h, 12 h, 24 h, 48 h, 72 h, and 96 h after intra-articular injection of 2 μg of Fluc-mRNA LNPs (PL10, PL14, and PL17, n=3).

[10] = system: most cells and tissues; settings: reported; cited from earlier work

SMILES | transfection efficiency relative to MC3 LNP ([1]; DOPE group LNP) [fold] | expression in vivo compared with control MC3 ([5]; DOPE group, weight ratio 10:1) | Intramuscular injection (PL/MC3) expression strength level [5] | in vivo transfection (expression, FIG. 5) [5] | White adipocyte administration (PL/SM102) expression strength level [6] | Summary of the strongest expressions [8] | other results
CCCCC/C=C\C/C=C\CCCCCCCCOP(=O)(NCCN(CCCCCCCCCCCC)CCCN(C)C)OCCCCCCCC/C=C\C/C=C\CCCCC [PL10] | 22 | better than that of control MC3 | A (A: ≥2) | expressed | C (C: ≥0.1 and <1) | A (A: ≥2) | encapsulation efficiency ([2]; DOPE LNP, microfluidic preparation): around 50%; encapsulation efficiency ([2]; weight ratio cationic PL lipid/RNA 5:1 (lowest lipid)): more than 30%; encapsulation efficiency ([2]; weight ratio cationic PL lipid/RNA 15:1 (most lipid)): about 70%; transfection efficiency relative to LNPs of control group MC3 [3]: 400 fold; particle size ([4]; weight ratio lipid nanoparticle/RNA 5:1): 200 nm; particle size ([4]; weight ratio lipid nanoparticle/RNA 15:1): 150 nm; in vivo fluorescence signal ([5]; weight ratio cationic lipid/RNA 15:1, 3 μg Fluc-mRNA): no fluorescence signal; in vivo expression relative to MC3 LNP ([5]; weight ratio lipid nanoparticles/RNA 5:1, 3 μg Fluc-mRNA): 3 fold; in vivo expression relative to MC3 LNP ([5]; weight ratio lipid nanoparticles/RNA 10:1, 3 μg Fluc-mRNA): 10 fold; Intraperitoneal injection (PL/SM102) expression strength level [7]: D (D: <0.1)
CCCCC/C=C\C/C=C\CCCCCCCCOP(=O)(NCCN(CCCCCCCCCC(=O)OC(CC)CCCCC)CCCN(C)C)OCCCC(=O)OCCCCCCCCCCC (centres unmarked) [PL12] | 7 | – | A (A: ≥2) | expressed | D (D: <0.1) | A (A: ≥2) | transfection efficiency relative to MC3 LNP ([1]; DSPC group LNP): 1.5 fold
CCCCC/C=C\C/C=C\CCCCCCCCOP(=O)(NCCCN1CCN(CCCN(CCCCCCCCCCCC)CCCCCCCCCCCC)CC1)OCCCCCCCC/C=C\C/C=C\CCCCC [PL14] | – | better than that of control MC3 | A (A: ≥2) | expressed | C (C: ≥0.1 and <1) | A (A: ≥2) | nanoparticle particle size ([4]; optimized formulation: decreased proportion of PEG, increased volume of aqueous phase): around 200 nm; enhancement of in vivo expression with respect to control MC3 ([5]; DOPE group, weight ratio 10:1, 3 g Fluc-mRNA/mouse): an order of magnitude enhancement; expression efficiency after intra-articular injection ([9]; 2 μg Fluc-mRNA LNPs, 6 h to 96 h): higher and more long-lasting expression efficiencies compared to both PL10 and PL17 LNPs; distribution and expression outside the joint after intra-articular injection ([9]; liver): distributed and expressed non-specifically in the liver
CCCCCCCCCCCOC(=O)CCCCCN(CCO)CCCCCCCC(=O)OC(CCCCCCCC)CCCCCCCC [SM102] | – | – | – | – | – | – | expression compared with MC3 [10]: at least ten-fold higher than that of MC3
